Measured values published in patent US20140303144A1, “COMPOUNDS AND METHODS OF TREATING HYPERTENSION” (Medivation Technologies, Inc., priority 2011, published 2014).

Tests used:
[1] = molecular target: T1, human recombinant adrenergic α2A receptor (Homo sapiens, UniProt P08913); assay: Adrenergic α2A radioligand binding assay ([3H]MK-912); conditions: 0.1 μM compound; read-out: Percentage inhibition of ligand binding, Adrenergic α2A
T1 construct: expressed in transfected cells; host or cells: insect Sf9 cells
T1 sequence (P08913 1-465): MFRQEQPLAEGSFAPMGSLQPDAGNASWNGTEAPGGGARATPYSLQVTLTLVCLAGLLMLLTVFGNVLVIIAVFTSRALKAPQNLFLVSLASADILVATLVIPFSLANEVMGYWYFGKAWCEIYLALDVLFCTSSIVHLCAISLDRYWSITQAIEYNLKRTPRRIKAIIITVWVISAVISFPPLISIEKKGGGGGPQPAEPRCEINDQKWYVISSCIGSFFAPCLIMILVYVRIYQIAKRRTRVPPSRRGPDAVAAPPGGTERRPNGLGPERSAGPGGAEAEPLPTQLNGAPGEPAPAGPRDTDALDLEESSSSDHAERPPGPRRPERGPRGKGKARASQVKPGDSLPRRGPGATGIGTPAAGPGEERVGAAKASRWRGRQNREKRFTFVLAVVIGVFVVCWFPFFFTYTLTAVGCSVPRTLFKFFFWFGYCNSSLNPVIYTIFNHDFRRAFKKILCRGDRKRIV
Procedure: To evaluate in radioligand binding assays the activity of compounds of the invention, human recombinant adrenergic α2A receptor expressed in insect Sf9 cells (Uhlen, S. et al, J. Pharmacol. Exp. Ther. 271:1558, 1994) in a modified Tris-HCl buffer (50 mM Tris-HCl, pH 7.4, 12.5 mM MgCl2, 2 mM EDTA) was used. Compounds of invention were incubated with 1 nM [^3H]MK-912 for 60 min at 25° C. MK912 was (2S-trans)-1,3,4,5′,6,6′,7,12b-octahydro-1′,3′-dimethyl-spiro[2H-benzofuro[2,3-a]quinolizine-2,4′(1′H)-pyrimidin]-2′(3′H)-one hydrochloride Non-specific binding was estimated in the presence of 10 μM WB-4101 (2-(2,6-Dimethoxyphenoxyethyl)aminomethyl-1,4-benzodioxane hydrochloride). Receptor proteins were filtered and washed, the filters were then counted to determine [^3H]MK-912 specifically bound. Compounds were screened at 1 μM or lower, using 1% DMSO as vehicle. Compounds of the invention were tested in this biochemical assay and percent inhibition of specific binding was determined. Biochemical assay results are presented as the percent inhibition of specific binding in Tables B1A-B1D.

[2] = molecular target: T2, rat adrenergic α1B receptor obtained from Wistar Rat liver (Rattus norvegicus, UniProt P15823); assay: Adrenergic α1B radioligand binding assay ([3H]Prazosin); conditions: 0.1 μM compound; read-out: Percentage inhibition of ligand binding, Adrenergic α1B
T2 construct: rat adrenergic α1B receptor obtained from Wistar Rat liver; from tissue; host or cells: Wistar rat liver
T2 sequence (P15823 1-515): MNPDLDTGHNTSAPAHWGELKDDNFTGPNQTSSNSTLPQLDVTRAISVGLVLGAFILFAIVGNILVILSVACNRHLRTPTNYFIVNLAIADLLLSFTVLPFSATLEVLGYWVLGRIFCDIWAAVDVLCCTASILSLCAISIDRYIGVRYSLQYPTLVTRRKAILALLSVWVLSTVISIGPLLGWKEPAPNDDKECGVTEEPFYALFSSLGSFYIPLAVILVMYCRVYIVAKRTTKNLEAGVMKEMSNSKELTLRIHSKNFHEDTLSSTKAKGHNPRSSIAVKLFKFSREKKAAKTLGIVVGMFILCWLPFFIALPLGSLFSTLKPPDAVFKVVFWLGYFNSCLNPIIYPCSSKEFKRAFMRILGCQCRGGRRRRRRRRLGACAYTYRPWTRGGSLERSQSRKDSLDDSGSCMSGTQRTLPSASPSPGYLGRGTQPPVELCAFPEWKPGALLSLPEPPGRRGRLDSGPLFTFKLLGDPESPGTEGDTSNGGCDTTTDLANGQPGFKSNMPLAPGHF
Procedure: To evaluate in radioligand binding assays the activity of compounds of the invention, rat adrenergic α1B receptor obtained from Wistar Rat liver (Garcia-S'ainz, J. et al, Biochem. Biophys. Res. Commun. 186:760, 1992; Michel, A. et al, Br. J. Pharmacol. 98:883, 1989) in a modified Tris-HCl buffer (50 mM Tris-HCl buffer, pH 7.4, 0.5 mM EDTA) was used. Compounds of the invention were incubated with 0.25 nM [^3H]Prazosin for 60 min at 25° C. Non-specific binding was estimated in the presence of 10 μM phentolamine. Receptor proteins were filtered and washed, the filters were then counted to determine [^3H]Prazosin specifically bound. Compounds were screened at 1 μM or lower, using 1% DMSO as vehicle. Compounds of the invention were tested in this biochemical assay and percent inhibition of specific binding was determined. Biochemical assay results are presented as the percent inhibition of specific binding in Tables B1A-B1D.

[3] = molecular target: T3, human recombinant adrenergic α1D receptor (Homo sapiens, UniProt P25100); assay: Adrenergic α1D radioligand binding assay ([3H]Prazosin); conditions: 0.1 μM compound; read-out: Percentage inhibition of ligand binding, Adrenergic α1D
T3 construct: expressed in transfected cells; host or cells: HEK-293 cells
T3 sequence (P25100 1-572): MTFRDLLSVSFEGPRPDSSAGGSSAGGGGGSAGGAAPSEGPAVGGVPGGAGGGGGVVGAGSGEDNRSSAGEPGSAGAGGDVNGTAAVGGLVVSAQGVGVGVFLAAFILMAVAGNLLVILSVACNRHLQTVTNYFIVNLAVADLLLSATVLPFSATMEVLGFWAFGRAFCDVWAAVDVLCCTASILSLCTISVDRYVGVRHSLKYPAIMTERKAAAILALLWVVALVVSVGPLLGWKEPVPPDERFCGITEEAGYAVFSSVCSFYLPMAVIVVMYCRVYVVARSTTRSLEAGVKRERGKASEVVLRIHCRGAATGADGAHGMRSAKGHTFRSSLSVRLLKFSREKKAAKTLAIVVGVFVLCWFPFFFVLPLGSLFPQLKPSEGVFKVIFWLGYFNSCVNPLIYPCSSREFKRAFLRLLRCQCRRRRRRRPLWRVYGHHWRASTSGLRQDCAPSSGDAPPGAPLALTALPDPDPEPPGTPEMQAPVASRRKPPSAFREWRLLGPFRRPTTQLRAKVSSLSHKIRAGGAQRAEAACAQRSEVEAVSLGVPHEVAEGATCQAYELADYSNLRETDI
Procedure: To evaluate in radioligand binding assays the activity of compounds of the invention, human recombinant adrenergic α1D receptor expressed in human embryonic kidney (HEK-293) cells (Kenny, B. et al, Br. J. Pharmacol. 115(6):981, 1995) in a 50 mM Tris-HCl buffer, pH 7.4, was used. Compounds were incubated with 0.6 nM [3H]Prazosin for 60 min at 25° C. Non-specific binding was estimated in the presence of 10 μM phentolamine. Receptor proteins were filtered and washed, the filters were then counted to determine [3H]Prazosin specifically bound. Compounds were screened at 1 μM or lower, using 1% DMSO as vehicle. Biochemical assay results are presented as the percent inhibition of specific binding in Tables B1A-B1D.

Row | Compound | inhibition at 0.1 µM [1] [%] | inhibition at 0.1 µM [2] [%] | inhibition at 0.1 µM [3] [%]
1 | Cc1cc(-c2ccc(F)cc2)c2c(c1)c1c(n2C)CCN(C)C1 [A7] | 10 | 2 | 4
2 | Cc1cc(C#Cc2cccs2)c2[nH]c3c(c2c1)CN(C)CC3 [A8] | 20 | -3 | 3
3 | Cc1cc(-c2ccncc2)c2c(c1)c1c(n2C)CCN(C)C1 [A9] | 0 | -9 | -1
4 | C#Cc1cc(C)cc2c3c(n(C)c12)CCN(C)C3 [A10] | 23 | 11 | 26
5 | C/C(=C\c1cc(C)cc2c3c(n(C)c12)CCN(C)C3)c1ccncc1 [A11] | 4 | -1 | -1
6 | Cc1cc(C#Cc2ccc(C)nc2)c2c(c1)c1c(n2C)CCN(C)C1 [A12] | -4 | 2 | 38
7 | Cc1cc(CCc2ccc(C)nc2)c2c(c1)c1c(n2C)CCN(C)C1 [A13] | -12 | -9 | 8
8 | Cc1cc(/C=C/c2ccc(C)nc2)c2c(c1)c1c(n2C)CCN(C)C1 [A14] | 12 | 0 | -9
9 | C/C(=C\c1cc(C)cc2c3c(n(C)c12)CCN(C)C3)c1ccc(C)nc1 [A15] | 20 | 0 | 5
10 | Cc1cc(C#Cc2nccs2)c2[nH]c3c(c2c1)CN(C)CC3 [A16] | 31 | 1 | -2
11 | Cc1cc(C#Cc2ccncc2)c2c(c1)c1c(n2C)CCN(C)C1 [A17] | 14 | 9 | -5
12 | Cc1ccc(C#Cc2cc(Cl)cc3c4c(n(C)c23)CCN(C)C4)cn1 [A18] | 6 | 30 | 34
13 | Cc1cc2c3c(c1)c1c(n3C(c3ccccc3)C2)CCN(C)C1 (stereo not drawn) [B12] | 75 | 28 | 28
14 | Cc1cc2c3c(c1)c1c(n3CC(C)(c3ccc(C)nc3)OC(C)C2)CCN(C)C1 (stereo not drawn) [B160] | -1 | 2 | 15
15 | Cc1cc2c3c(c1)c1c(n3C[C@@](C)(c3ccncc3)O[C@H]2C)CCN(C)C1 [B162] | 14 | -6 | -2
16 | Cc1cc2c3c(c1)c1c(n3C[C@](C)(c3ccncc3)O[C@H]2C)CCN(C)C1 [B163] | 5 | 6 | 15
17 | Cc1cc2c3c(c1)c1c(n3CC(C)(c3ccncc3)OC(C)C2)CCN(C)C1 (stereo not drawn) [B165] | 40 | 0 | 0
18 | Cc1ccc2c(c1)c1c3n2C(c2ccccc2)=CCC3(C)CN(C)C1 (stereo not drawn) [D10] | -1 | -3 | -6
19 | Cc1ccc2c(c1)c1c3n2CC(c2ccncc2)=CCC3(C)CN(C)C1 (stereo not drawn) [D11] | 8 | 16 | -5
20 | Cc1ccc2c(c1)c1c3n2C(c2ccccc2)CCC3(C)CN(C)C1 (stereo not drawn) [D12] | 5 | 10 | -3
